In brackets after ≈: the same amount, converted by molar mass. Like-named read-outs stand apart in the source and are kept apart here. Peptide text beside a SMILES is read from it.
Experiments:
mcr-1-bearing E. coli = assay type: cell-based; details: colistin 32 μg/ml for 24 hours; initial ~10^8 CFU/mL in saline
Experimental: Starvation-induced bacterial sub-population tolerant cells of colistin-resistant and colistin-susceptible E. coli and A. baumannii strains are tested against the bactericidal effect of the combination of otilonium bromide and colistin. […] The incubation temperature is 37° C. Ob and colistin are added at the same time.

[1] = system: E. coli (colistin-resistant); test: MIC, colistin-resistant E. coli clinical isolates, with and without otilonium bromide; assay type: cell-based; details: Escherichia coli

**Q.** How did the “size of the viable tolerant population” value (mcr-1-bearing E. coli) turn out when `CCC(C)CCCC(=O)N[C@@H](CCN)C(=O)N[C@H](C(=O)N[C@@H](CCN)C(=O)N[C@H]1CCNC(=O)[C@H]([C@@H](C)O)NC(=O)[C@H](CCN)NC(=O)[C@H](CCN)NC(=O)[C@H](CC(C)C)NC(=O)[C@@H](CC(C)C)NC(=O)[C@H](CCN)NC1=O)[C@@H](C)O` (stereo partly drawn) [Colistin] (HELM PEPTIDE1{[CCC(C)CCCC(=O)[*:2]].[Dab].T.[Dab].[Dab].[Dab].[dL].L.[Dab].[Dab].T}$PEPTIDE1,PEPTIDE1,5:R3-11:R2$$$V2.0) was run?
**A.** 5*10^5 CFU/ml

**Q.** What about the MIC ([1]; E. coli 5, colistin-resistant, colistin alone, read-out: Colistin MIC, Colistin) of the same compound?
**A.** 8 µg/mL (≈ 6.92 µM)

**Q.** And the MIC ([1]; E. coli 5, colistin-resistant, in the presence of 10 ug/ml Ob, read-out: Colistin MIC, Colistin + 10 ug/ml Ob)?
**A.** 4 µg/mL

**Q.** What about the MIC ([1]; E. coli 5, colistin-resistant, in the presence of 20 ug/ml Ob, read-out: Colistin MIC, Colistin + 20 ug/ml Ob) of the same compound?
**A.** ≤ 0.25 µg/mL

**Q.** What about the MIC ([1]; E. coli 12.12.0487, colistin-resistant, colistin alone, read-out: Colistin MIC, Colistin) of the same compound?
**A.** 8 µg/mL (≈ 6.92 µM)

**Q.** And the MIC ([1]; E. coli 12.12.0487, colistin-resistant, in the presence of 10 ug/ml Ob, read-out: Colistin MIC, Colistin + 10 ug/ml Ob)?
**A.** 2 µg/mL

**Q.** What about the MIC ([1]; E. coli 12.12.0487, colistin-resistant, in the presence of 20 ug/ml Ob, read-out: Colistin MIC, Colistin + 20 ug/ml Ob) of the same compound?
**A.** 0.5 µg/mL

**Q.** And the MIC ([1]; E. coli 101, colistin-resistant, colistin alone, read-out: Colistin MIC, Colistin)?
**A.** 8 µg/mL (≈ 6.92 µM)

**Q.** What about the MIC ([1]; E. coli 101, colistin-resistant, in the presence of 10 ug/ml Ob, read-out: Colistin MIC, Colistin + 10 ug/ml Ob) of the same compound?
**A.** 4 µg/mL

**Q.** And the MIC ([1]; E. coli 101, colistin-resistant, in the presence of 20 ug/ml Ob, read-out: Colistin MIC, Colistin + 20 ug/ml Ob)?
**A.** 1 µg/mL

**Q.** What about the MIC ([1]; E. coli 119, colistin-resistant, colistin alone, read-out: Colistin MIC, Colistin) of the same compound?
**A.** 16 µg/mL (≈ 13.8 µM)

**Q.** And the MIC ([1]; E. coli 119, colistin-resistant, in the presence of 10 ug/ml Ob, read-out: Colistin MIC, Colistin + 10 ug/ml Ob)?
**A.** 4 µg/mL

**Q.** And the MIC ([1]; E. coli 119, colistin-resistant, in the presence of 20 ug/ml Ob, read-out: Colistin MIC, Colistin + 20 ug/ml Ob)?
**A.** 2 µg/mL

**Q.** What about the MIC ([1]; E. coli 812, colistin-resistant, colistin alone, read-out: Colistin MIC, Colistin) of the same compound?
**A.** 16 µg/mL (≈ 13.8 µM)

**Q.** And the MIC ([1]; E. coli 812, colistin-resistant, in the presence of 10 ug/ml Ob, read-out: Colistin MIC, Colistin + 10 ug/ml Ob)?
**A.** 4 µg/mL

**Q.** What about the MIC ([1]; E. coli 812, colistin-resistant, in the presence of 20 ug/ml Ob, read-out: Colistin MIC, Colistin + 20 ug/ml Ob) of the same compound?
**A.** 1 µg/mL

**Q.** What about the MIC ([1]; E. coli 2016.2.5 1149-1, colistin-resistant, colistin alone, read-out: Colistin MIC, Colistin) of the same compound?
**A.** 8 µg/mL (≈ 6.92 µM)

**Q.** And the MIC ([1]; E. coli 2016.2.5 1149-1, colistin-resistant, in the presence of 10 ug/ml Ob, read-out: Colistin MIC, Colistin + 10 ug/ml Ob)?
**A.** 4 µg/mL

**Q.** And the MIC ([1]; E. coli 2016.2.5 1149-1, colistin-resistant, in the presence of 20 ug/ml Ob, read-out: Colistin MIC, Colistin + 20 ug/ml Ob)?
**A.** 1 µg/mL

**Q.** And the MIC ([1]; E. coli 34650, colistin-resistant, colistin alone, read-out: Colistin MIC, Colistin)?
**A.** 8 µg/mL (≈ 6.92 µM)

**Q.** What about the MIC ([1]; E. coli 34650, colistin-resistant, in the presence of 10 ug/ml Ob, read-out: Colistin MIC, Colistin + 10 ug/ml Ob) of the same compound?
**A.** 2 µg/mL

**Q.** What about the MIC ([1]; E. coli 34650, colistin-resistant, in the presence of 20 ug/ml Ob, read-out: Colistin MIC, Colistin + 20 ug/ml Ob) of the same compound?
**A.** 0.5 µg/mL

**Q.** And the MIC ([1]; E. coli CX48, colistin-resistant, colistin alone, read-out: Colistin MIC, Colistin)?
**A.** 8 µg/mL (≈ 6.92 µM)

**Q.** And the MIC ([1]; E. coli CX48, colistin-resistant, in the presence of 10 ug/ml Ob, read-out: Colistin MIC, Colistin + 10 ug/ml Ob)?
**A.** 4 µg/mL

**Q.** And the MIC ([1]; E. coli CX48, colistin-resistant, in the presence of 20 ug/ml Ob, read-out: Colistin MIC, Colistin + 20 ug/ml Ob)?
**A.** 1 µg/mL

**Q.** What about the MIC ([1]; E. coli CX53, colistin-resistant, colistin alone, read-out: Colistin MIC, Colistin) of the same compound?
**A.** 8 µg/mL (≈ 6.92 µM)

**Q.** What about the MIC ([1]; E. coli CX53, colistin-resistant, in the presence of 10 ug/ml Ob, read-out: Colistin MIC, Colistin + 10 ug/ml Ob) of the same compound?
**A.** 4 µg/mL

**Q.** What about the MIC ([1]; E. coli CX53, colistin-resistant, in the presence of 20 ug/ml Ob, read-out: Colistin MIC, Colistin + 20 ug/ml Ob) of the same compound?
**A.** 2 µg/mL

**Q.** And the MIC ([1]; E. coli CX116, colistin-resistant, colistin alone, read-out: Colistin MIC, Colistin)?
**A.** 2 µg/mL (≈ 1.73 µM)

**Q.** What about the MIC ([1]; E. coli CX116, colistin-resistant, in the presence of 10 ug/ml Ob, read-out: Colistin MIC, Colistin + 10 ug/ml Ob) of the same compound?
**A.** ≤ 0.25 µg/mL

**Q.** What about the MIC ([1]; E. coli CX116, colistin-resistant, in the presence of 20 ug/ml Ob, read-out: Colistin MIC, Colistin + 20 ug/ml Ob) of the same compound?
**A.** ≤ 0.25 µg/mL

**Q.** And the MIC ([1]; E. coli WZ2431, colistin-resistant, colistin alone, read-out: Colistin MIC, Colistin)?
**A.** 8 µg/mL (≈ 6.92 µM)

**Q.** And the MIC ([1]; E. coli WZ2431, colistin-resistant, in the presence of 10 ug/ml Ob, read-out: Colistin MIC, Colistin + 10 ug/ml Ob)?
**A.** 2 µg/mL

**Q.** And the MIC ([1]; E. coli WZ2431, colistin-resistant, in the presence of 20 ug/ml Ob, read-out: Colistin MIC, Colistin + 20 ug/ml Ob)?
**A.** 0.5 µg/mL

**Q.** And the MIC ([1]; E. coli WZ2909, colistin-resistant, colistin alone, read-out: Colistin MIC, Colistin)?
**A.** 16 µg/mL (≈ 13.8 µM)

**Q.** What about the MIC ([1]; E. coli WZ2909, colistin-resistant, in the presence of 10 ug/ml Ob, read-out: Colistin MIC, Colistin + 10 ug/ml Ob) of the same compound?
**A.** 8 µg/mL

**Q.** What about the MIC ([1]; E. coli WZ2909, colistin-resistant, in the presence of 20 ug/ml Ob, read-out: Colistin MIC, Colistin + 20 ug/ml Ob) of the same compound?
**A.** 1 µg/mL

**Q.** And the MIC ([1]; E. coli WZ3903, colistin-resistant, colistin alone, read-out: Colistin MIC, Colistin)?
**A.** 4 µg/mL (≈ 3.46 µM)

**Q.** And the MIC ([1]; E. coli WZ3903, colistin-resistant, in the presence of 10 ug/ml Ob, read-out: Colistin MIC, Colistin + 10 ug/ml Ob)?
**A.** ≤ 0.25 µg/mL

**Q.** What about the MIC ([1]; E. coli WZ3903, colistin-resistant, in the presence of 20 ug/ml Ob, read-out: Colistin MIC, Colistin + 20 ug/ml Ob) of the same compound?
**A.** ≤ 0.25 µg/mL

— US12220440B2, “Drug composition, method for treating infection, disinfecting composition, and drug adjuvant” (priority 2022, dated 2025)
